Assay results as given in ChEMBL document CHEMBL1125699, “Development of a novel series of (2-quinolinylmethoxy)phenyl-containing compounds as high-affinity leukotriene D4 receptor antagonists. 4. Addition of chromone moiety enhances leukotriene D4 receptor binding affinity” (J Med Chem, 1991).

What was measured:
[1] = biological target: T1, Cysteinyl leukotriene receptor 1 (Cavia porcellus, UniProt Q2NNR5); assay: Binding affinity against LTD4 receptor in guinea pig lung membranes.; format: cell membranes
T1 sequence (Q2NNR5 whole entry): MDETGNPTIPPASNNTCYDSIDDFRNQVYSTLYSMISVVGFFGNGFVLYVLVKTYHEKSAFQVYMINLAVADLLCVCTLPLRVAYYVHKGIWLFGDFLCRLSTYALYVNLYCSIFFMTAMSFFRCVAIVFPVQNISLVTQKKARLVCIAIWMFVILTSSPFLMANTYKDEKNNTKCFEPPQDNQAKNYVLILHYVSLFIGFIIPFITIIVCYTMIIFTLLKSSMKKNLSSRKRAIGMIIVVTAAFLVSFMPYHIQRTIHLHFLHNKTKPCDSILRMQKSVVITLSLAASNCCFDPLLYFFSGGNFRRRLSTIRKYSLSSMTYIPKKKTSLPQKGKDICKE

[2] = biological target: T2, Cysteinyl leukotriene receptor 1 (Cavia porcellus) (UniProt Q2NNR5); assay: Radioligand binding affinity against LTD4 receptor in guinea pig lung membranes at the concentration of 30 nM.; format: cell membranes; details: Membrane
T2 sequence (whole entry): T1 sequence (Q2NNR5 whole entry)

Row | Ki [1] [nM] | inhibition [2] [%] | SMILES
1 | 18 | – | O=C1CC(C(=O)O)Oc2ccc(Cl)c(OCc3ccc(OCc4ccc5ccccc5n4)cc3)c21 (stereo not given)
2 | – | 22 | CCCc1c(OCc2cccc(OCc3ccc4ccccc4n3)c2)ccc2c1OC(C(=O)O)CC2=O (stereo not given)
3 | 15 | – | O=C1CC(c2nnn[nH]2)Oc2c(COc3ccc(OCc4ccc5ccccc5n4)cc3)cccc21 (stereo not given)
4 | 1.3 | – | O=C1CC(C(=O)O)Oc2ccc(OCc3cccc(OCc4ccc5ccccc5n4)c3)cc21 (stereo not given)
5 | 30 | – | CCOC(=O)C1CC(=O)c2ccc(COc3cccc(OCc4ccc5ccccc5n4)c3)cc2O1 (stereo not given)
6 | 2.5 | – | O=C1CC(c2nnn[nH]2)Oc2cc(/C=C/c3cccc(OCc4ccc5ccccc5n4)c3)ccc21 (stereo not given)
7 | 7000 | – | O=C(O)c1cc(=O)c2ccc(OCc3ccc4ccccc4n3)cc2o1
8 | 1.1 | – | O=C(Nc1cccc2c1OC(c1nnn[nH]1)CC2=O)c1ccc(OCc2ccc3ccccc3n2)cc1 (stereo not given)
9 | 1.2 | – | CC1(CCC(=O)O)CC(=O)c2ccc(OCc3cccc(OCc4ccc5ccccc5n4)c3)cc2O1 (stereo not given)
10 | 0.1 | – | O=C1CC(c2nnn[nH]2)Oc2cc(OCc3cccc(OCc4ccc5ccccc5n4)c3)ccc21 (stereo not given)
11 | 2.1 | – | O=C1CC(C(=O)O)Oc2cc(OCc3cccc(OCc4ccc5ccccc5n4)c3)ccc21 (stereo not given)
12 | 0.12 | – | O=C1CC(c2nnn[nH]2)Oc2cc(COc3cccc(OCc4ccc5ccccc5n4)c3)ccc21 (stereo not given)
13 | 13 | – | O=C1CC(C(=O)O)Oc2c(COc3ccc(OCc4ccc5ccccc5n4)cc3)cccc21 (stereo not given)
14 | 6.3 | – | O=C1CC(C(=O)O)Oc2cc(COc3ccc(OCc4ccc5ccccc5n4)cc3)ccc21 (stereo not given)
15 | 0.3 | – | O=C1CC(c2nnn[nH]2)Oc2cc(CCc3cccc(OCc4ccc5ccccc5n4)c3)ccc21 (stereo not given)
